Experimental data: US6080871A, “Sulfonamides and sulfamides as H3 receptor antagonists” (James Black Foundation Limited, priority 1996, dated 2000)
Where two headings read alike, the source gives them in different places.

Assays:
[1] = target: T1, H3 receptor (Cavia porcellus, UniProt Q9JI35); test: H3 receptor bioassay (functional assay), guinea pig ileal longitudinal muscle myenteric plexus; assay type: cell-based; details: electrically stimulated guinea pig ileum; for Kb: read-out: pKB (functional assay) (converted)
T1 construct: the longitudinal muscle layer and adhering myenteric plexus was teased away; from tissue; host or cells: ileal longitudinal muscle with adhering myenteric plexus of male Dunkin-Hartley guinea pigs
Method: The biological activity of the compounds of the examples was measured using the ileal longitudinal muscle, myenteric plexus assay described by Paton and Aboo Zar (J. Physiol. 194, 13-33 (1968)). Male Dunkin-Hartley guinea pigs (250-300 g) were employed. Briefly, a 50 cm portion of ileum proximal to the caecum was removed, after discarding the terminal 20 cm. Ileal segments (3 cm) were cleaned by passing Krebs-Henseleit buffer containing 3 μM mepyramine gently through the ileum using a Pasteur pipette (size: 13.8 cm length, 0.65 cm diameter). To avoid unnecessary damage to the tissue, Krebs-Henseleit buffer was passed through the ileal segment, while it was lying horizontally on a petri dish. Therefore, the ileum was not over-distended and the buffer flowed through with ease. Each segment was then passed over a Pasteur pipette and the longitudinal muscle layer and adhering myenteric plexus was teased away using moist cotton wool, by stroking tangentially away from the mesenteric attachment. The tissues were suspended in 20 ml organ baths containing Krebs-Henseleit buffer at 37±1° C. and gassed with […]. The tissues were ligated to two parallel stainless steel wires, situated between two platinum electrodes (0.76 cm length, 0.06 cm diameter). All measurements were recorded isometrically (Grass FTO3 transducer). Following an initial loading tension of 1 g, the tissues were stimulated with electrical pulses at a frequency of 0.1 Hz and a pulse duration of 0.5msec, as described by Kosterlitz & Watt (1968). Initially, the tissues were stimulated at supramaximal (1.3 fold times maximal) voltage for a period of 30 min and then the tissues were washed and re-stimulated. A "sighter dose" of the selective histamine H3 -receptor agonist, R-(α)-methylhistamine(0.3 μM) (Arrang et al., 1987), was administered. Upon generation of response, the "sighter dose" was removed from the tissues by "washout" (6 washes over 60 min) and during this period the electrical stimulation was switched off. The tissues were then re-stimulated and allowed to stabilise prior to the addition of drug treatments, which were allocated on a randomised block basis to the organ baths. Following the incubation period, a single cumulative E/[A] curve was obtained. The experimental E/[A] curve data was expressed as the percentage inhibition of the peak height of electrically-stimulated contraction. Antagonist affinity values were calculated from the degree of rightward shift of the R-(α)-methylhistamine E/[A] curves using Schild's methods (Arunlatcshama & Schild, 1949).
(§1) Typical variance in the functional assay is ±0.15 log units. Typical variance in the binding assay is ±0.12 log units. This means that if the discrepancy between the two assays is greater than about 0.5 log units, then this difference on average is significant.

[2] = target: T2, Histamine H3 (Cavia porcellus, UniProt Q9JI35); test: Histamine H3 radioligand binding assay, [3H]-R-α-methylhistamine, guinea pig ileum longitudinal muscle myenteric plexus membranes
T2 construct: ileum longitudinal muscle myenteric plexus membranes; from tissue; host or cells: ileum longitudinal muscle myenteric plexus membranes of male Dunkin Hartley guinea pigs
Method: Histamine H3 Radioligand Binding Assay
Male Dunkin Hartley guinea pigs (200-300 g) were used. The small intestine was rapidly removed (cut ~5 cm from caecum and 5 cm from stomach) and placed in ice-cold 20 mM Hepes-NaOH buffer (pH7.4 at 21±3° C.). The tissue was cut into ~10 cm segments, flushed through with ice-cold 20 mM Hepes-NaOH buffer and placed in a beaker containing fresh buffer at 4° C. 10 cm segments of ileum were threaded onto a glass pipette and the longitudinal muscle myenteric plexus was peeled away from the circular muscle using damp cotton-wool. Longitudinal muscle myenteric plexus was immediately placed in ice-cold Viaspan® solution (~100 ml for tissue from 3 guinea pigs) and placed in the refrigerator for 24 hours.
Pre-soaked tissue was weighed and minced with scissors. The tissue was then homogenised in Viaspan® using a polytron (Kinematica AG; PT-DA 3020/2TS, 3×~1-2 s). 50 ml of 500 mM Tris HCl (pH6.9 at 21±3° C.) was added to the tissue and the mixture centrifuged at 39,800×g for 12 min at 4° C. The supernatant was discarded and rehomogenised in 100 ml ice-cold 20 mM Hepes-NaOH buffer (pH7.4 at 21±3° C.) using a teflon-in-glass homogeniser (setting 10; 3×). The homogenate was recentrifuged at 39,800×g and the pellet resuspended in 20 mM Hepes-NaOH buffer (pH7.4 at 21±3° C.), to a tissue concentration of 50 mg.ml^-1, using a polytron (Brinkman, PT10, 3×~1 s).
Guinea pig ileum longitudinal muscle myenteric plexus membranes (400 μl) were incubated for 165 min at 21±3° C. in a final volume of 500 μl with 20 mM Hepes-NaOH buffer containing [^3 H]-R-α-methylhistamine (50 μl; 3 nM) and competing compound. Total and non-specific binding of [^3 H]-R-α-methylhistamine were defined using 50 μl of buffer and 50 μl of 10 μM thioperamide, respectively. The assay was terminated by rapid filtration through Whatman GF/B filters, presoaked (2 hr) in 0. 1% polyethyleneimine,using a Brandell Cell Harvester. The filters were washed (3×3 ml) with ice-cold 50 mM Tris-HCl (pH6.9 at 21±3° C.), transferred into scintillation vials, 5 ml liquid scintillation cocktail was added and after 4 hours the bound radioactivity was determined by counting (4 min) in a Beckman liquid scintillation counter.
Data are analysed using GraphPad prism and the general equation for a competition curve with variable Hill slope (nH).
Y=Non-specific binding+(Total binding-Non-specific binding)/1+10^((logIC.sbsp.50^-X).n.sbsp.H^)
X is the log concentration of competing compound, Y is the binding obtained at each concentration of X, pIC50 is the concentration of the competitor required to compete for half of the specific binding.
The IC50 is converted to the K1 using the Cheng Prusoff equation, […]
IC50 is the concentration of competitor required to compete for half the specific binding, L is the radioligand concentration used, KD is the equilibrium dissociation constant for the radioligand determined by saturation experiments.
as §1

[3] = antagonism of R-(α)-methylhistamine E/[A] curve, Schild's methods, variance ±0.15 log units
[4] = 3 nM [3H]-R-α-methylhistamine, 165 min, 21±3° C., Cheng Prusoff, variance ±0.12 log units, read-out: pK1 (binding assay) (converted)
[5] = 3 nM [3H]-R-α-methylhistamine, 165 min, 21±3° C., Cheng Prusoff, variance ±0.12 log units

T1 sequence (Q9JI35 whole entry): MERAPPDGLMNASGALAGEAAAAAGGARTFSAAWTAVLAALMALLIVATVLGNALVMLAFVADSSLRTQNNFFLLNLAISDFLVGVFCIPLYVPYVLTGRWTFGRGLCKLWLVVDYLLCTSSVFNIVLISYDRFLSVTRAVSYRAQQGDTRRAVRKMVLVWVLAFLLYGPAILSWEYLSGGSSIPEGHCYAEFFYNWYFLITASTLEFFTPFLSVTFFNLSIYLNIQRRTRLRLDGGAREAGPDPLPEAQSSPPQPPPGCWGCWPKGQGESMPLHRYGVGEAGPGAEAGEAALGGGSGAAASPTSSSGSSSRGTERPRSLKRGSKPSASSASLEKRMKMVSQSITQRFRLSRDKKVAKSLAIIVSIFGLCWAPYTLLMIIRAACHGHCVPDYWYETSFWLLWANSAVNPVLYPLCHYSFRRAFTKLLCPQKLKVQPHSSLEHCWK
T2 sequence (Q9JI35 whole entry): as above

Row | Structure (SMILES) | Kb [1, 3] [nM] | Ki [2, 4] [nM] | also measured
1 | O=S(=O)(CCc1ccc(Cl)cc1)NCCCc1c[nH]cn1 [Example 53, N-[3-(4(5)-Imidazoyl)propyl]-2-(4-chlorophenyl)ethanesulfonamide] | 182 |  | Ki [2]: 56.2 nM
2 | O=S(=O)(CCc1ccc(Cl)cc1)NCCCCCc1c[nH]cn1 [Example 54, N-[5-(4(5)-Imidazoyl)pentyl]-2-(4-chlorophenyl)ethanesulfonamide] | 15.8 | 10 | 
3 | O=S(=O)(CCc1ccc(Cl)cc1)NCCCCc1c[nH]cn1 [Example 55] | 6.03 | 7.76 | 
4 | O=S(=O)(NCCCc1c[nH]cn1)NCCc1ccc(Cl)cc1 [Example 56, N-[3-(4(5)-Imidazoyl)propyl]-N'-2-(4-chlorophenyl)ethyl-sulfamide] | 447 | 138 | 
5 | O=S(=O)(NCCCCc1c[nH]cn1)NCCc1ccc(Cl)cc1 [Example 57, N-[4-(4(5)-Imidazoyl)butyl]-N'-2-(4-chlorophenyl)ethyl-sulfamide] | 11 | 14.5 | 
6 | O=S(=O)(NCCCCCCc1c[nH]cn1)NCc1ccc(Br)cc1 [Example 58] | 1.05 | 4.37 | 
7 | O=S(=O)(NCCCCCCc1c[nH]cn1)NCc1ccc(F)cc1 [Example 59, N-[6-(4(5)-Imidazoyl)hexyl]-N'-(4-fluorophenyl)methyl-sulfamide] | 3.72 | 8.32 | 
8 | O=S(=O)(NCCCCCCc1c[nH]cn1)NCc1ccc(C(F)(F)F)cc1 [Example 60, N-[6-(4(5)-Imidazoyl)hexyl]-N'-(4-(trifluoromethyl)phenyl)methyl-sulfamide] | 14.5 | 4.57 | 
9 | O=S(=O)(NCCCCCCc1c[nH]cn1)NCc1ccc(I)cc1 [Example 61, N-[6-(4(5)-Imidazoyl)hexyl]-N'-(4-iodophenyl)methyl-sulfamide] |  |  | pKB (functional assay) [1, 3]: 8.62; pK1 (binding assay) [2, 5]: 8.46
10 | O=S(=O)(NCCCCCCc1c[nH]cn1)NCc1ccc(-c2ccccc2)cc1 [Example 62, N-[6-(4(5)-Imidazoyl)hexyl]-N'-(4biphenyl)methyl-sulfamide] | 7.41 | 5.75 | 
11 | O=S(=O)(NCCCCCc1c[nH]cn1)NCc1ccc(C(F)(F)F)cc1 [Example 63, N-[5-(4(5)-Imidazoyl)pentyl]-N'-(4-(trifluoromethyl)phenyl)methyl-sulfamide] | 4.07 | 6.61 | 
12 | C[C@H](Cc1c[nH]cn1)NS(=O)(=O)c1ccc2ccccc2c1 [Example 71, (R)-(+)-N-[2-(4(5)-Imidazoyl)-1-methyl-ethyl]-2-naphthalenesulfonamide] |  |  | EC50 ([1]; printed in the pKB column, read-out: p[A]50 (functional assay) (converted)): 776 nM; pK1 (binding assay) [2, 5]: 8.44

More lines, main results first:

Row | Kb [1, 3] [nM] | Ki [2, 4] [nM] | Structure (SMILES) | also measured
13 | 3.89 | 5.01 | O=S(=O)(NCCCCCc1c[nH]cn1)NCc1ccc(Br)cc1 [Example 64, N-[5-(4(5)-Imidazoyl)pentyl]-N'-(4-bromophenyl)methyl-sulfamide] | 
14 | 47.9 | 10.5 | O=S(=O)(NCCCCCc1c[nH]cn1)NCc1ccc(F)cc1 [Example 65, N-[5-(4(5)-Imidazoyl)pentyl]-N'-(4-fluorophenyl)methyl-sulfamide] | 
15 | 8.71 | 7.76 | O=S(=O)(NCCCCCc1c[nH]cn1)NCc1ccc(I)cc1 [Example 66, N-[5-(4(5)-Imidazoyl)pentyl]-N'-(4-iodophenyl)methyl-sulfamide] | 
16 | 603 | 141 | O=S(=O)(NCc1ccc(Br)cc1)N(CCCCc1c[nH]cn1)Cc1ccc(Br)cc1 [Example 67, N,N'-Di-[(4-bromophenyl)methyl]-N-[4-(4(5)-imidazoyl)butyl]-sulfamide] | 
17 | 17 | 11.2 | CN(CCCCc1c[nH]cn1)S(=O)(=O)N(C)Cc1ccc(Cl)cc1 [Example 68, N'-(4-Chlorophenyl)methyl-N,N'-dimethyl-N-[4-(4(5)-imidazoyl)butyl]-sulfamide] | 
18 | 1.2 | 1.86 | CN(CCCCc1c[nH]cn1)S(=O)(=O)NCc1ccc(Cl)cc1 [Example 69, N'-(4-Chlorophenyl)methyl-N-[4-(4(5)-imidazoyl)butyl]-N-methyl-sulfamide] | 
19 | 15.8 | 11.2 | CN(Cc1ccc(Cl)cc1)S(=O)(=O)NCCCCc1c[nH]cn1 [Example 70] | 
